Target: T1, human subtype 5 somatostatin receptor (Homo sapiens, UniProt P35346)
T1 construct: host or cells: CHO cells, stably transfected; membranes prepared from them
Assay: radioligand replacement (binding) assay, membranes of CHO cells expressing human SSTR5, 125I-labeled 11-Tyr somatostatin-14 tracer
Details: human SSTR5, CHO cell membranes, 0.05 nM 125I-labeled 11-Tyr somatostatin-14, 1 h at rt; Ki from IC50 by Cheng-Prussoff equation
Procedure: A CHO cell line stably transfected with a plasmid encoding the human subtype 5 somatostatin receptor (GenBank accession number D16827) was obtained from Euroscreen. Cells were cultured and used for binding and functional assays.
Membranes of these cells were prepared by sonication in the presence of protease inhibitors and subsequent fractionating centrifugation. The protein concentration in the membrane preparation was determined using a commercial kit (BCA kit, Pierce, USA). Membranes were stored at −80° C. until use. After thawing membranes were diluted in assay buffer (50 mM Tris-HCl at pH 7.4, 5 mM MgCl2 and 0.20% BSA) and subjected to Dounce homogenization.
For binding studies, 0.1 mL membrane suspension, corresponding to approximately 6×10^−15 mol receptor, was incubated for 1 h at rt with 0.05 nM ^125I-labeled tracer (11-Tyr somatostatin-14, Perkin-Elmer) and either test compounds in varying concentrations or, for the determination of non-specific binding, 0.001 mM non-labeled somatostatin-14. The incubation was stopped by filtration through GF/B glassfiber filters and washing with ice-cold wash buffer (50 mM Tris-HCl at pH 7.4). The bound radioactivity was measured after application of a scintillation cocktail (Microscint 40) and expressed as disintegrations per minute (dpm).
The receptor concentration was determined in a prior saturation experiment where a fixed, arbitrary amount of membranes was incubated with a concentration range of radio-labeled tracer. This allows estimating the total number of specific binding sites per amount of protein (i.e., Bmax), typically between 1 and 5 pmol/mg.
The concentration of the test compound required to result in half maximal inhibition of binding of the radio-labeled tracer (IC50) was estimated from a concentration-versus-dpm graph. The binding affinity (Ki) was calculated from the IC50 by applying the Cheng-Prussoff equation for single binding sites.

T1 sequence (P35346 whole entry): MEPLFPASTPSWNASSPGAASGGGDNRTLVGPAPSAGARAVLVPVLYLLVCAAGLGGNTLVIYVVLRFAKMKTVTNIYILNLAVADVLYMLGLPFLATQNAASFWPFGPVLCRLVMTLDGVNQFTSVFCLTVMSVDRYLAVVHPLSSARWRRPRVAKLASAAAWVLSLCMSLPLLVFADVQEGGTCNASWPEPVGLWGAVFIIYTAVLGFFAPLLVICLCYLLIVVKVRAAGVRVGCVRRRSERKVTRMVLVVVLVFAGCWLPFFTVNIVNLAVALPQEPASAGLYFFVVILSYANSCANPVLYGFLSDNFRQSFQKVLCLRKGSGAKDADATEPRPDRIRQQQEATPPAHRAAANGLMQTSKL

Ki	SMILES
25 nM	CCOc1cc(CN2CCC(Nc3cnc(N)c(C)c3)CC2)cc(OCC)c1-c1ccc(F)cc1 [Example 79, N^5-[1-(2,6-diethoxy-4′-fluoro-biphenyl-4-ylmethyl)-piperidin-4-yl]-3-methyl-pyridine-2,5-diamine]
62 nM	CCOc1cc(CN2CCC(Nc3cnc4ccccc4c3)CC2)ccc1OC(F)F [Example 99, [1-(4-difluoromethoxy-3-ethoxy-benzyl)-piperidin-4-yl]-quinolin-3-yl-amine]

SMILES	Ki
CCOc1cc(CN2CCC(Nc3ccnc(C)c3)CC2)ccc1OCC(C)C [Example 122, [1-(3-ethoxy-4-isobutoxy-benzyl)-piperidin-4-yl]-(2-methyl-pyridin-4-yl)-amine]	492 nM

— US7939661B2, “Pyridine, quinoline and pyrimidine derivatives” (Hoffman-La Roche Inc., priority 2006, dated 2011)
